Data taken from patent US20060063791A1, “(Spirocyclylamido)aminothiophene compounds” (priority 2004, published 2006).
Counter-ions that a name gives are not always drawn.

Columns and labels:
[1] = target: T1, wild-type c-Kit receptor protein endogenously expressed in H526 cells (Homo sapiens, UniProt P10721); test: Assay for inhibition of c-Kit in intact cells (C-KIT H526 cell assay, ELISA of SCF-stimulated tyrosine phosphorylation); format: cell-based; conditions: 3 h compound pre-incubation, SCF stimulation 15 min, read-out: IC50 (concentration of compound that inhibits SCF-induced tyrosine phosphorylation of the c-Kit protein by 50%)
T1 construct: wild-type c-Kit receptor protein that is endogenously expressed in H526 cells; endogenous in cells; host or cells: H526 (ATCC # CRL-5811), human small cell lung cancer
Description: C-KIT H526 Cell Assay Protocol
I. Assay for Inhibition of c-Kit in Intact Cells
The ability of compounds to inhibit the tyrosine kinase activity of c-Kit was determined in a cell-based ELISA assay using the H526 cell line (ATCC # CRL-5811), which was originally derived from a human small cell lung cancer. The assay determines the ability of compounds to block ligand-stimulated tyrosine phosphorylation of the wild-type c-Kit receptor protein that is endogenously expressed in H526 cells. Cells are pre-incubated with compounds at various concentrations prior to addition of stem cell factor (SCF), the ligand for the c-Kit receptor tyrosine kinase. Cell lysates are then prepared and the c-Kit protein is captured onto a c-Kit antibody-coated 96-well ELISA plate. The phosphotyrosine content of the receptor protein is then monitored by quantitation of the degree of binding of an antibody that recognizes only the phosphorylated tyrosine residues within the captured protein. The antibody used has a reporter enzyme (e.g. horseradish peroxidase, HRP) covalently attached, such that binding of antibody to phosphorylated c-Kit can be determined quantitatively by incubation with an appropriate HRP substrate.
Cell Lysis Buffer: • 50 mM Tris-HCl, pH 7.4 • 150 mM NaCl • 10% Glycerol • 1% Triton X-100 • 0.5 mM EDTA • 1 μg/mL leupeptin • 1 μg/mL aprotinin • 1 mM Sodium orthovanadate
Anti c-Kit Antibody: • 0.5 μg/mL anti c-Kit Ab-3 (Lab Vision, catalog #MS289P1) in 50 mM Sodium bicarbonate, pH 9.
ELISA Assay Plates: • ELISA assay plates are prepared by addition of 100 μL of anti c-Kit antibody to each well of a 96-well Microlite-2 plate (Dynex, catalog # 7417), followed by incubation at 37° C. for 2 h. The wells are then washed twice with 300 μL wash buffer.
Plate Wash Buffer: • PBS containing 0.5% Tween-20 (PBST)
Cell Assay Medium: • RPMI with 0.1% BSA
pY20-HRP: • 25 ng/mL pY20-HRP (Calbiochem, catalog # 525320) in PBS, containing 0.5% Tween-20, 5% BSA, 1 mM Sodium orthovanadate
HRP Substrate: • Chemoluminescent detection reagent (Pierce, catalog # 37075)
Cultures of H526 cells, growing in RPMI with 10% fetal calf serum, were collected by centrifugation, washed twice with PBS, and suspended in cell assay medium. Cells were then distributed into a V-bottom 96-well plate at 7.5×10^4 cells per well in 100 μL cell assay medium.
Compound dilutions were prepared from 10 mM DMSO stocks by dilution in cell assay medium, the final concentration of DMSO in the assay being 0.1%. To compound incubation wells, 50 μL of the test compound was added (compounds are assayed at concentrations between 0.1 nM and […]); to positive and negative control wells, 50 μL cell assay medium containing 0.1% DMSO was added. The cells were then incubated with compound at 37° C. for 3 h. SCF (R&D Systems, catalog #255-SC-010) was then added in order to stimulate the c-Kit receptor and induce its tyrosine phosphorylation. Then, 10 μL of a 1.6 μg/mL solution of SCF in cell assay medium was added to all wells apart from the negative control wells, and the cells were incubated for an additional 15 min at 37° C. Following the addition of ice-cold PBS, the plate was centrifuged at 1000 rpm for 5 min, the medium removed by aspiration, and the cell pellet lysed by the addition of 120 μL ice-cold cell lysis buffer per well. The plate was kept on ice for 20 min and 100 μL of the cell lysates from each well were then transferred to the wells of an ELISA assay plate and incubated at 4° C. for 16 h.
Following incubation of the cell lysates in the ELISA plate, the wells were washed 4 times with 300 μL wash buffer, then 100 μL of the phosphotyrosine detection antibody pY20-HRP was added to each well and the plate incubated at rt for 2 h. The wells were then washed 4 times with 300 μL wash buffer. Then, 50 μL of the chemiluminescent HRP substrate was added to each well for luminometric quantitation of the amount of antiphosphotyrosine-HRP conjugate bound to the plate. […]

[2] = system: MO7e human leukemia cells; conditions: cited from earlier work
[3] = system: MO7e human leukemia cells; conditions: cited from earlier work; remark: listed apart in the source

T1 sequence (P10721 26-976): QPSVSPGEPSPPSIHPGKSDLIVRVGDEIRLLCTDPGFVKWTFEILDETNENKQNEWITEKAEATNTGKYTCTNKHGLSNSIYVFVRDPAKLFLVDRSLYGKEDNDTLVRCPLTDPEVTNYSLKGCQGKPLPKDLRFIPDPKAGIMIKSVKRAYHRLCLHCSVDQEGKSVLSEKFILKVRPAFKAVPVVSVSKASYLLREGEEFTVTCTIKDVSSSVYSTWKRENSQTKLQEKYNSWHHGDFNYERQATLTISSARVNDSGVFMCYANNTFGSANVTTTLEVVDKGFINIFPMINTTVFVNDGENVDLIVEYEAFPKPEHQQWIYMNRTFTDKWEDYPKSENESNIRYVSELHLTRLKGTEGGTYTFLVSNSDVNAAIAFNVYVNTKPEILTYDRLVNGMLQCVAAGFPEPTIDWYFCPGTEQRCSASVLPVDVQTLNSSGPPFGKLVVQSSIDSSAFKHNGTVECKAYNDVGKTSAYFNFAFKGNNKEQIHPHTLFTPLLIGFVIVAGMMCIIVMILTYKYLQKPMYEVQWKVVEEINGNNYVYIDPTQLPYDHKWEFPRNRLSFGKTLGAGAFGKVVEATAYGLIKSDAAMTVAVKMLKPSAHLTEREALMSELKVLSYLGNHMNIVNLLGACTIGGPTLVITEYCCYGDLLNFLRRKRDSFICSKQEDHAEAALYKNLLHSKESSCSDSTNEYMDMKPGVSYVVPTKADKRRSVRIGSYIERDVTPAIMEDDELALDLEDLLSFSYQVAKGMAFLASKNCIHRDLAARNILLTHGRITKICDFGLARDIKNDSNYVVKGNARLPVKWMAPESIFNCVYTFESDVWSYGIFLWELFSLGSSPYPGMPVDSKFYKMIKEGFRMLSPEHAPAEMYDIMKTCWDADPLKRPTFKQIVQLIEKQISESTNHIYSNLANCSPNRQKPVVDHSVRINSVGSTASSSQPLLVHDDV

Row | SMILES | IC50 [1] | other results
1 | CN1CCN[C@]2(CC[C@@H](NC(=O)c3sccc3NCc3ccnc4ccccc34)CC2)C1=O [Compound 1, cis-N-(4-Methyl-5-oxo-1,4-diazaspiro[5.5]undec-9-yl)-3-[(quinolin-4-ylmethyl)amino]thiophene-2-carboxamide] | > 15 µM | 
2 | O=C(N[C@H]1CC[C@@]2(CC1)CC(=O)N(Cc1ccccc1)N2)c1sccc1NCc1ccnc2ccccc12 [Compound 2, cis-N-(2-Benzyl-3-oxo-1,2-diazaspiro[4.5]dec-8-yl)-3-[(quinolin-4-ylmethyl)amino]thiophene-2-carboxamide] | > 15 µM | 
3 | O=C(NC1CCC2(CC1)NC(=O)N(Cc1ccccc1)C2=O)c1sccc1NCc1ccnc2ccccc12 (stereo not drawn) [Compound 3, N-(3-Benzyl-2,4-dioxo-1,3-diazaspiro[4.5]dec-8-yl)-3-[(quinolin-4-ylmethyl)amino]thiophene-2-carboxamide] | > 15 µM | 
4 | O=C1NC(=O)C2(CCC(NC(=O)c3sccc3NCc3ccnc4ccccc34)CC2)N1 (stereo not drawn) [Compound 4, N-(2,4-Dioxo-1,3-diazaspiro[4.5]dec-8-yl)-3-[(quinolin-4-ylmethyl)amino]thiophene-2-carboxamide] | > 15 µM | 
5 | Cc1csc(C(=O)NC2CCC3(CC2)NC(=O)N(CCC(C)C)C3=O)c1NCc1ccnc2ccccc12 (stereo not drawn) [Compound 5, N-[3-(3-Methylbutyl)-2,4-dioxo-1,3-diazaspiro[4.5]dec-8-yl]-4-methyl-3-[(quinolin-4-ylmethyl)amino]thiophene-2-carboxamide] | > 15 µM | 
6 | O=C(Nc1ccc2c(c1)C1(CCN(C(=O)OCc3ccccc3)CC1)CN2)c1sccc1NCc1ccnc2ccccc12 [Compound 6] | > 15 µM | 
7 | Cc1ccc(NC(=O)c2ccc(CN3CCN(C)CC3)cc2)cc1Nc1nccc(-c2cccnc2)n1 [Gleevec, imatinib mesylate] |  | apoptosis ([2]; Kit ligand-stimulated conditions): induces apoptosis; Kit ligand-stimulated growth ([2]; Kit ligand-stimulated): inhibited; GM-CSF stimulated growth [3]: not affected
